Read-outs that look alike come from different tables or passages of the source.
Assays:
CB1R = settings: cited from earlier work
GRABeCB2.0 sensor [1] = target: T1, GRABeCB2.0 sensor (Homo sapiens, UniProt P21554, S383T, form not given); assay type: cell-based; settings: for EC50: HEK293 cells, without BSA, ΔF/F0 4-5 min, read-out: EC50 at inducing GRABeCB2.0 fluorescent signal; for Effect on GRABeCB2.0 basal fluorescence: no agonist
Text: (§1) Stable eCB2.0 sensor cell line: A stable sensor cell line was established in HEKtsA201 cells (Sigma-Aldrich, St. Louis, MO, USA) using the PiggyBac Transposon-based system (SBI, Palo Alto, CA, USA). Briefly, the open reading frame of the eCB2.0 sensor from eCB2.0 to C1^20 was cloned into the PB514B shuttle vector using In Fusion cloning (Takara, San Jose, CA, USA). The modified shuttle sequence was obtained with Sanger sequencing (Psomagen, Rockville, MD, USA) and verified (MacVector, Apex, NC, USA). HEKtsA201 cells were maintained in DMEM (Thermo Fisher, Waltham, MA, USA: Gibco #10569-010) supplemented with 10% fetal bovine serum (Gibco #A31605-01) and 1% penicillin/streptomycin (Gibco #15140-122) at 37 °C and 8% CO2. Cells were plated on 12-well tissue culture plates at approximately 50% confluency. This low cell density was used to avoid overgrowth of the cells during the delay between transfection and selection for stable integration. After 3 h, the eCB2.0 shuttle was co-transfected at a plasmid mass ratio of 10:1 with the SBI Transposase vector (PB210PA) using deacylated PEI [71]. All transfected wells were checked the next day for expression of the sensor by presence of basal cpeGFP fluorescence. […] Wells were selected for integration beginning at 4 days post transfection with […] Puromycin (Gibco #A11138-03). Selection was continued throughout all passages of the stable line. Cells were transferred to T25 (25 cm^2) tissue culture flasks after 10 to 14 days of selection.
Assay Procedure: The DMEM solution was removed from the T25 flat-sided cell culture flask by decantation. […] A total of 7 mL of fresh DMEM was added, and cells were gently pipetted to remove any remaining cells from the flask wall. The total volume (10 mL) was transferred to a 15 mL Falcon tube and centrifuged at 800× g for 4 min at 23 °C. […] After the addition of the DPBS buffer, a baseline reading of the cells was taken using the PHERAstar FSX microplate reader (BMG/Labtech, Cary, NC, USA) to establish the F0 or initial fluorescence (see Figure 1A,B).
(§2) When running the assay for an agonist, […] of the compound and […] of additional DPBS buffer was added to the wells. […] In either assay, the cannabinoid ligands were added, followed by incubation of the compound on the cells at 37 °C for 5 min before taking a fluorescence reading using the PHERAstar FSX microplate reader equipped with a GFP filter cube module (Ex. 485 nm/Em. 520 nm). The recorded values were the F or final fluorescence.
Statistical Methods: All GRABeCB2.0 fluorescent signals (in cases noted) are expressed as normalized ΔF/F0 as calculated for the fluorescence assay in the PHERAstar FSX Plate reader.

CB1 receptor = settings: cited from earlier work
GRABeCB2.0 sensor [2] = target: T1, GRABeCB2.0 sensor; assay type: cell-based
Text: as §1
Assay Procedure: The DMEM solution was removed from the T25 flat-sided cell culture flask by decantation. […] A total of 7 mL of fresh DMEM was added, and cells were gently pipetted to remove any remaining cells from the flask wall. The total volume (10 mL) was transferred to a 15 mL Falcon tube and centrifuged at 800× g for 4 min at 23 °C. Upon completion of centrifugation, the supernatant was removed and discarded, leaving behind a small pellet of cells that were resuspended in 4 mL of fresh DMEM. The cell suspension was mixed in a 1:1 ratio with 0.4% TrypanBlue ([…] each) and […] solution was added to each side of a Countess Cell Counting Chamber and inserted into the Countess II Automated Cell Counter (Thermo Fisher, Waltham, MA, USA). The concentration of cells as adjusted to 0.7–1.0 million cells/mL with DMEM complete media and […] was added to the desired wells of a clear bottom black plastic tissue culture treated 96-well plate. The plate was incubated at 37 °C and 8% CO2 for a 24–48 h period. After incubation, the […] DMEM buffer was removed and replaced with […] of DPBS buffer containing calcium and magnesium (Gibco #14040-133). After the addition of the DPBS buffer, a baseline reading of the cells was taken using the PHERAstar FSX microplate reader (BMG/Labtech, Cary, NC, USA) to establish the F0 or initial fluorescence (see Figure 1A,B).
as §2, with “wells. A concentration curve was made for the modulator with the final concentrations in the wells holding the cells ranging from 1 pM to 10 mM with 1% DMSO BSA in a total volume of […].” for “wells.”
For reported allosteric modulators, the binding assay was modified to test the ligand for basal activity, followed by the addition of the agonist, similar to the antagonist assay.

GRABeCB2.0 sensor [3] = target: T1, GRABeCB2.0 sensor; settings: increasing concentrations; cited from earlier work
GRABeCB2.0 sensor [4] = target: T1, GRABeCB2.0 sensor; assay type: cell-based; settings: for Effect on CP55940 fluorescence signal/maximal fluorescence: modulator 1 μM, varying CP55940
Procedure: For reported allosteric modulators, the binding assay was modified to test the ligand for basal activity, followed by the addition of the agonist, similar to the antagonist assay. […] The compound of interest was varied across concentrations ranging (as the case may be) from 1 nM, 3 nM, 10 nM, 30 nM, 100 nM, 300 nM, 1 μM, and 10 μM and performed in triplicate. The concentration of the compound depended on the modulator itself. The concentrations calculated were the final concentration inside the well of the 96-well plate, along with the 1% DMSO and 0.5 mg/mL BSA (See Supplementary Materials, Figure S1).
Statistical Methods: All GRABeCB2.0 fluorescent signals (in cases noted) are expressed as normalized ΔF/F0 as calculated for the fluorescence assay in the PHERAstar FSX Plate reader. EC50/IC50 values were calculated using GraphPad Prism 9 by fitting data to a nonlinear regression model with normalized variable slope (four parameters, normalized where indicated) or using three-parameter response. Data represent mean ± SEM from a minimum of at least three independent experiments performed in triplicates.

[5] = reported, read-out: binding Ki (reported)
[6] = read-out: GRABeCB2.0 IC50 0.5 mg/mL BSA

T1 sequence (P21554 whole entry S383T, looked up, form open, the tested form may be a part): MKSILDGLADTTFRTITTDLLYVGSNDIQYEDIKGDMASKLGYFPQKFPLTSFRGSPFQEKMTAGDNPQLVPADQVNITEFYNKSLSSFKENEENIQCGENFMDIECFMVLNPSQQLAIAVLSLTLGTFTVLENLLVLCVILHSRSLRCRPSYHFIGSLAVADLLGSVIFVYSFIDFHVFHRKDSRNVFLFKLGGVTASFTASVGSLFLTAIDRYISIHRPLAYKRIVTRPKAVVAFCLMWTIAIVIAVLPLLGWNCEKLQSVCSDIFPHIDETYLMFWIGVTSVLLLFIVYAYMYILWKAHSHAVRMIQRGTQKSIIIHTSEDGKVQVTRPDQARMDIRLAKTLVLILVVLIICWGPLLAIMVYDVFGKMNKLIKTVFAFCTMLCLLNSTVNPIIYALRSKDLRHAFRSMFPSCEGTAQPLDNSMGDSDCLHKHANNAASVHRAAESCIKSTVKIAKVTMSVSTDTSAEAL

**Q.** With `C[C@H](NC(=O)C(C)(C)Oc1ccc(C(F)(F)F)cn1)[C@@H](Cc1ccc(Cl)cc1)c1cccc(C#N)c1` [Taranabant] as the molecule, how does the Ki (CB1R; read-out: reported Ki) read?
**A.** 0.13 nM

**Q.** With `CC(=O)OCCn1c(=NC(=O)C2C(C)(C)C2(C)C)sc2cc(C)ccc21` [MRI-2687] as the molecule, how does the EC50 (GRABeCB2.0 sensor [1]) read?
**A.** 1300 nM

**Q.** Which results are given for `CCCCC/C=C\C/C=C\C/C=C\C/C=C\CCCC(=O)NCCCl` [ACEA, (5Z,8Z,11Z,14Z)-N-(2-chloroethyl)icosa-5,8,11,14-tetraenamide]?
**A.** EC50 (CB1 receptor; read-out: reported EC50 for the CB1 receptor): 51 nM; Ki (CB1R; Supplementary Table 1, # literature reported values, read-out: CB1R wild-type binding Ki): 1.4 nM; Ki (CB1R; read-out: Ki for CB1 receptor): 1.5 to 5 nM

**Q.** For `CCNC1(C(N)=O)CCN(c2ncnc3c2nc(-c2ccccc2Cl)n3-c2ccc(Cl)cc2)CC1` [Otenabant], which IC50 (CB1 receptor; read-out: reported IC50) is on record?
**A.** […]

**Q.** And the Ki (CB1R; read-out: binding Ki for CB1R)?
**A.** 0.7 nM

**Q.** With `CC(=O)NC(=N)NC(=NS(=O)(=O)c1ccc(Cl)cc1)N1C[C@@H](c2ccccc2)C(c2ccc(Cl)cc2)=N1` [R-MRI-1776] as the molecule, how does the “CB1 binding of R-enantiomers on the sensor” value (GRABeCB2.0 sensor [2]) read?
**A.** weak CB1 binding

**Q.** What does the source list for `C/C(N)=N\C(=N/S(=O)(=O)c1ccc(C(F)(F)F)cc1)N1C[C@H](c2ccccc2)C(c2ccc(Cl)cc2)=N1` [MRI-1867]?
**A.** IC50 (CB1 receptor; reported, read-out: functional potency IC50 (reported)): 40 nM; Ki (CB1R; [5]): 2.6 nM; IC50 (GRABeCB2.0 sensor [2]; read-out: GRABeCB2.0 IC50): 105 ± 5.4 nM; IC50 (GRABeCB2.0 sensor [2]; [6]): 90 ± 5 nM

**Q.** Which “Effect on GRABeCB2.0 basal fluorescence” value (GRABeCB2.0 sensor [1]) does the source give for `CCc1c(C(=O)NCCc2ccc(N3CCCCC3)cc2)[nH]c2ccc(Cl)cc12` [ORG27569] here?
**A.** did not significantly alter basal fluorescence

**Q.** What about the “Effect on CP55940-activated GRABeCB2.0 fluorescence” value (GRABeCB2.0 sensor [2]) of the same molecule?
**A.** void of any concentration-dependent effects

**Q.** What about the IC50 (GRABeCB2.0 sensor [2]; read-out: IC50 as weak antagonists (normalized curve)) of the same molecule?
**A.** 787 nM

**Q.** What does the source list for `CC(C)[C@H](N=C(NS(=O)(=O)c1ccc(Cl)cc1)N1C[C@H](c2ccccc2)C(c2ccc(Cl)cc2)=N1)C(N)=O` [JD5037]?
**A.** Ki (CB1R; read-out: binding Ki on CB1R): 0.5 nM; IC50 (GRABeCB2.0 sensor [2]; read-out: GRABeCB2.0 IC50): 148 ± 12 nM; IC50 (GRABeCB2.0 sensor [2]; [6]): 29 ± 3.5 nM

**Q.** With `C=C(C)[C@@H]1CCC(C)=C[C@H]1c1c(O)cc(CCCCC)cc1O` [CBD, cannabidiol] as the molecule, how does the “Effect on basal GRABeCB2.0 fluorescent signal (reported)” value (GRABeCB2.0 sensor [3]) read?
**A.** did not affect basal GRABeCB2.0 fluorescent signal

**Q.** Which “Effect on CP55940 fluorescence signal/maximal fluorescence” value (GRABeCB2.0 sensor [4]) does the source give for `O=[N+]([O-])C[C@H](c1ccccc1)c1c(-c2ccccc2)[nH]c2ccccc12` [GAT228] here?
**A.** did not shift the fluorescence signal

**Q.** Which “Effect on CP55940-activated GRABeCB2.0 fluorescence” value (GRABeCB2.0 sensor [2]) does the source give for Pregnenolone sulfate here?
**A.** extinguished CP fluorescence but showed no concentration-dependent effects

**Q.** For `CC(=O)NC(=N)NC(=NS(=O)(=O)c1ccc(C(F)(F)F)cc1)N1C[C@@H](c2ccccc2)C(c2ccc(Cl)cc2)=N1` [R-MRI-1891], which “CB1 binding of R-enantiomers on the sensor” value (GRABeCB2.0 sensor [2]) is on record?
**A.** weak CB1 binding

**Q.** With `CC(=O)[C@H]1CC[C@H]2[C@@H]3CC=C4C[C@@H](O)CC[C@]4(C)[C@H]3CC[C@]12C` [Pregnenolone] as the molecule, how does the “Effect on GRABeCB2.0 basal fluorescence” value (GRABeCB2.0 sensor [1]) read?
**A.** did not significantly alter basal fluorescence

**Q.** And the “Effect on CP55940-activated GRABeCB2.0 fluorescence” value (GRABeCB2.0 sensor [2])?
**A.** void of any concentration-dependent effects

**Q.** What about the “Effect on 2-AG-activated GRABeCB2.0 fluorescence” value (GRABeCB2.0 sensor [2]; 20 μM 2-AG) of the same molecule?
**A.** this behavior could be replicated

**Q.** With `CC(=O)OCCn1c(C)c(C)s/c1=N\C(=O)C1C(C)(C)C1(C)C` [MRI-2594] as the molecule, how does the EC50 (GRABeCB2.0 sensor [1]) read?
**A.** 527 ± 27 nM

**Q.** For `CC(=O)NC(N)=NC(=NS(=O)(=O)c1ccc(C(F)(F)F)cc1)N1C[C@H](c2ccccc2)C(c2ccc(Cl)cc2)=N1` [MRI-1891], which IC50 (CB1 receptor; printed after 'bias toward inhibition of the β-arrestin pathway, over G-protein signaling pathway', read-out: IC50 (reported)) is on record?
**A.** 6 nM

**Q.** What about the Ki (CB1R; [5]) of the same molecule?
**A.** 0.5 nM

**Q.** What does the source list for `O=[N+]([O-])C[C@@H](c1ccccc1)c1c(-c2ccccc2)[nH]c2ccccc12` [GAT229]?
**A.** Effect on CP55940 fluorescence signal/maximal fluorescence (GRABeCB2.0 sensor [4]): increased the maximal fluorescence; apparent α (Schild-like analysis) (GRABeCB2.0 sensor [4]; range of CP55940 concentrations): > 1; Effect on CP55940-activated GRABeCB2.0 fluorescence (GRABeCB2.0 sensor [2]): more potent enhancer of sensor fluorescence than GAT228

— article PMC11084632, “Pharmacological Evaluation of Cannabinoid Receptor Modulators Using GRABeCB2.0 Sensor” (International Journal of Molecular Sciences, 2024)
